Measurements taken from US20130184462A1, “METHOD FOR PREDICTING AND MODELING ANTI-PSYCHOTIC ACTIVITY USING VIRTUAL SCREENING MODEL” (COUNCIL OF SCIENTIFIC & INDUSTRIAL RESEARCH, priority 2010, published 2013).

Tested on: amphetamine induced hyperactivity mice model
Test: Amphetamine induced hyperactivity mouse model
Conditions: in-vitro and in-vivo evaluation, FIGS. 3 and 4
Method: The animals were housed in plastic polypropylene cages under standard animal house conditions with a 12 hours light/dark cycle and temperature of 25±2° C.
The mice randomly grouped in batches of seven animals per group. The basal motor activity (distance traveled) of each mouse was recorded individually using automated activity monitor (TSE, Germany). After basal activity recording, a group of seven animals were challenged with amphetamine [5.5 mg/kg, intra peritoneal (i.p) dissolved in normal saline]. After 30 min. amphetamine injection, motor activity was recorded for individual animal for 5 min.
The difference in motor activity as indicated by distance traveled in animals with amphetamine alone treated and animals with samples plus amphetamine challenge was recorded as inhibition in hyper activity caused by amphetamine and data presented as percent inhibition in amphetamine induced hyperactivity.

Row | Compound | antipsychotic activity in-vitro and in-vivo
1 | COC(=O)C1C(OC(C)=O)CCC2CN3CCc4c([nH]c5ccccc45)C3CC21 (stereo not drawn) [K001A, 17-O-acetyl α-yohimbine] | potential antipsychotic activity
2 | COC(=O)C1C(OC(=O)c2cccc([N+](=O)[O-])c2)CCC2CN3CCc4c([nH]c5ccccc45)C3CC21 (stereo not drawn) [K001C, 17-O-(3″)-nitrobenzoyl α-yohimbine] | potential antipsychotic activity
3 | COC(=O)C1C(OC(=O)c2ccc([N+](=O)[O-])cc2)CCC2CN3CCc4c([nH]c5ccccc45)C3CC21 (stereo not drawn) [K001E, 17-O-(4″)-nitrobenzoyl-α-yohimbine] | potential antipsychotic activity
4 | COC(=O)C1C(OC(=O)C=Cc2ccccc2)CCC2CN3CCc4c([nH]c5ccccc45)C3CC21 (stereo not drawn) [K001F, 17-O-cinnamoyl α-yohimbine] | potential antipsychotic activity
